According to patent publication US12383514B2, “Nano-particles of menaquinone and methods of treatment” (Epizon, Inc., priority 2023, dated 2025):

What was measured:
[1] = Dissolution testing of MK-7 nanosuspension in FeSSIF (study 1, 500 mL media); type: physicochemical; conditions: FeSSIF pH 5, 37 °C, 0.01 mg/mL drug load
Protocol: MK-7 (menaquinone-7, API) was suspended in an aqueous vehicle containing wetting agent sodium deoxycholat. The API concentration was 4% and the wetting agent concentration was 0.4% w/w. The API particles were milled to a particle size of 155 nm using zirconium milling beads and high shear Beadbeater mixing. The dissolution of the nanosuspension was tested at a concentration of 0.01 mg/mL, in triplicate, in pH 5 Fed State Simulated Intestinal Fluid (FeSSIF).
1. Clean dissolution system with DI water. Prepare FeSSIF: 2. Fill three (3) vessels with 500 mL of FeSSIF media and heat to 37° C. 3. Set up the following dissolution conditions:
4. Vortex suspension x for approximately one minute so that it is uniform. Weigh three (3) aliquots of 0.15 g of the 4% nanosuspension into a tared syringe to give a target 100% dissolution concentration of 0.01 mg/mL. Record weight. 5. Add weighed suspension directly to each vessel. 6. Start at Timer. 7. After five minutes, manually pull up 3 mL from each dissolution vessel in a syringe. 8. Attach a 0.2 μm filter to the syringe. 9. Transfer 2 mL of the dissolution sample back into the vessel. 10. Transfer the final 1 mL of sample to an amber HPLC vial and crimp seal. 11. Repeat Steps #8-11 at 10, 15, 30, 45 and 60 mins. 12. After the 60-minute time-point, mix each vessel for 5 minutes with a high shear mixer. 13. Repeat Step #8-11 and label this sample as ‘infinity’. 14. Run samples on HPLC 10 minutes HPLC method with replicate HPLC standard solutions.

[2] = Dissolution testing of MK-7 nanosuspension in FeSSIF (summary study 2); type: physicochemical; conditions: FeSSIF pH 5, 37 °C, 0.0104 mg/mL
Protocol: MK-7 (menaquinone-7, API) was suspended in an aqueous vehicle containing wetting agent, sodium deoxycholate. The API concentration was 4% and the wetting agent concentration was 0.4% w/w. The API particles were milled to a particle size of 156 nm by use of zirconium milling beads and high shear Beadbeater mixing. The dissolution of the nanosuspension was tested at a concentration of 0.01 mg/mL, in triplicate, in pH 5 FeSSIF.
Clean dissolution system with DI water. Fill 3× vessels with 500 mL of FeSSIF media and heat to 37° C. Set up the following dissolution conditions:
Vortex suspension×1 minute so that it is uniform. Weigh 3×0.15 g portions of nanosuspension into a tared syringe to give a target 100% dissolution concentration of 0.01 mg/mL. Record weight. Add weighed suspension directly to each vessel. Start at Timer.
At 5 mins, manually pull up 3 mL from each vessel in a syringe. Attach a 0.2 μm filter to the syringe. Transfer 2 mL of the aliquot back into the vessel. Transfer the final 1 mL of aliquot to an HPLC vial and crimp seal. Repeat Steps #8-11 at 10, 15, 30, 45 and 60 mins. After the 60-minute time-point, mix each vessel for 5 minutes with a high shear mixer. Repeat Step #8-11 and label this sample as ‘infinity’.
Run samples on HPLC 10-minute HPLC method with replicate HPLC STDs.

[3] = system: caspase-3; conditions: concentration of 10 mcmol/L; cited from earlier work
[4] = system: PC12 cells; conditions: cited from earlier work
[5] = Infinity (after 5 min high shear mixing)

| Molecule | % Dissolution (Avg of n = 3) [1, 5] [%] | % Dissolution (Avg of n = 3) ([1]; timepoint 0 min) [%] | % Dissolution (Avg of n = 3) ([1]; timepoint 10 min) [%] | % Dissolution (Avg of n = 3) ([1]; timepoint 15 min) [%] | % Dissolution (Avg of n = 3) ([1]; timepoint 30 min) [%] | % Dissolution (Avg of n = 3) ([1]; timepoint 45 min) [%] | % Dissolution (Avg of n = 3) ([1]; timepoint 60 min) [%] | % Dissolution (Avg of n = 3) [2, 5] [%] | % Dissolution (Avg of n = 3) ([2]; timepoint 0 min) [%] | % Dissolution (Avg of n = 3) ([2]; timepoint 5 min) [%] | % Dissolution (Avg of n = 3) ([2]; timepoint 10 min) [%] | % Dissolution (Avg of n = 3) ([2]; timepoint 15 min) [%] | % Dissolution (Avg of n = 3) ([2]; timepoint 30 min) [%] | % Dissolution (Avg of n = 3) ([2]; timepoint 45 min) [%] | % Dissolution (Avg of n = 3) ([2]; timepoint 60 min) [%] | decrease of caspase-3 activity [3] [fold] | neuronal death resulting from Aβ(1-42) ([4]; PC12 cells) | apoptosis after exposure to H2O2 or Aβ(1-42) ([4]; cells pretreated with vitamin K2) |
| --- | --- | --- | --- | --- | --- | --- | --- | --- | --- | --- | --- | --- | --- | --- | --- | --- | --- | --- |
| CC(C)=CCC/C(C)=C/CC/C(C)=C/CC/C(C)=C/CC/C(C)=C/CC/C(C)=C/CC/C(C)=C/CC1=C(C)C(=O)c2ccccc2C1=O [API, menaquinone-7] | 97.0 | 0 | 96.7 | 97.3 | 97.8 | 97.7 | 95.7 | 10.1 | 0.0 | 4.1 | 9.1 | 8.3 | 16.6 | 7.9 | 5.3 | – | – | – |
| vitamin K2 | – | – | – | – | – | – | – | – | – | – | – | – | – | – | – | 2.5 | prevented neuronal death | significantly less apoptosis |
